Patent US5334603A, “Composition and use of 3-phenyl-5-thiocyano-methylthio-1,3,4-thiadiazole-2(3h)thione” (The Dow Chemical Company, priority 1993, dated 1994)
Values after ≈ are worked out from the molar mass of the structure shown.

Columns and labels:
Type in all cases: cell-based
[1] = system: Penicillium chrysogenum (Pc); test: Minimum inhibitory concentration (MIC), malt yeast agar; conditions: pH 5.5; ATCC 9480; 30° C.; 48 hours for yeast, 72 hours for fungi
Description: (§1) The minimum inhibitory concentration (MIC) for the compound is determined for 9 bacteria, using nutrient agar; and 7 yeast and fungi, using malt yeast agar. A one percent solution of the test compound is prepared in a mixture of acetone and water. Nutrient agar is prepared at pH 6.8, representing a neutral medium, and at pH 8.2, representing an alkaline medium. The nutrient agars are prepared by adding 23 g of nutrient agar to one-liter of deionized water. In addition, the alkaline medium is prepared by adjusting a 0.04M solution of N-[tris-(hydroxymethyl)methyl]-glycine buffered deionized water with concentrated sodium hydroxide to a pH of […]. Malt yeast agar is prepared by adding 3 g yeast extract and 45 g malt agar per liter of deionized water. The specific agar is dispensed in 30 ml aliquots into 25×200 mm test tubes, capped and autoclaved for 15 minutes at 115° C. The test tubes containing the agar are cooled in a water bath until the temperature of the agar is 48 ° C. Then, an appropriate amount of the one percent solution of the test compound is added (except in the controls where no compound is added) to the respective test tubes so that the final concentrations are 500, 250, 100, 50, 25, 10, 5, 2.5, 1.0 and zero parts per million of the test compound in the agar, thus having a known concentration of test compound dispersed therein. The contents of the test tubes are then transferred to respective petri plates. After drying for 24 hours, the petri plates containing nutrient agar are inoculated with bacteria and those containing malt yeast agar are inoculated with yeast and fungi.
(§2) The inoculation with the yeast and fungi is accomplished as follows. Cultures of yeast and fungi are incubated for seven days on malt yeast agar at 30° C. These cultures are used to prepare suspensions by the following procedure. A suspension of each organism is prepared by adding 10 ml of sterile saline and 10 microliters of octylphenoxy polyethoxy ethanol to the agar slant of yeast or fungi. The sterile saline/octylphenoxy polyethoxy ethanol solution is then agitated with a sterile swab to suspend the microorganism grown on the slant. Each resulting suspension is diluted into sterile saline (1 part suspension: 9 parts sterile saline). Aliquots of these dilutions are placed in individual wells of Steer's Replicator and petri plates inoculated as previously described. The petri plates are incubated at 30° C. and read after 48 hours for yeast and 72 hours for fungi.

Trichoderma viride (Tv) = test: as above; conditions: pH 5.5; ATCC 8678; 30° C.; 48 hours for yeast, 72 hours for fungi
Description: as §1, §2

Fusarium oxysporum (Fo) = test: as above; conditions: pH 5.5; ATCC 48112; 30° C.; 48 hours for yeast, 72 hours for fungi
Description: as §1, §2

Candida Albicans (Ca) = test: as above; conditions: pH 5.5; ATCC 10231; 30° C.; 48 hours for yeast, 72 hours for fungi
Description: as §1, §2

[2] = system: Aureobasidium pullulan (Ap); test: as above; conditions: pH 5.5; ATCC 16622; 30° C.; 48 hours for yeast, 72 hours for fungi
Description: as §1, §2

[3] = system: Saccharomyces cerevisiae (Sc); test: as above; conditions: ATCC4105, pH 5.5, ATCC 4105, 30° C., 48 hours for yeast, 72 hours for fungi
Description: as §1, §2

Aspergillus niger (An) = test: as above; conditions: pH 5.5; ATCC 16404; 30° C.; 48 hours for yeast, 72 hours for fungi
Description: as §1, §2

[4] = system: Pseudomonas aeruginosa (Pa); test: Minimum inhibitory concentration (MIC), nutrient agar; conditions: 48 hours
Description: as §1
(§3) The inoculation with bacteria is accomplished by using the following procedure. Twenty-four hour-cultures of each of the bacteria are prepared by incubating the respective bacteria in tubes containing nutrient broth for 24 hours at 30° C. in a shaker. Dilutions of each of the 24 hour-cultures are made so that nine separate suspensions (one for each of the nine test bacteria) are made, each containing 10^8 colony forming units (CFU) per ml of suspension of a particular bacteria. Aliquots of 0.3 ml of each of the bacterial suspensions are used to fill the individual wells of Steer's Replicator. For each microbial suspension, 0.3 ml was used to fill three wells (i.e., three wells of 0.3 ml each) so that for the nine different bacteria, 27 wells are filled. The Steer's Replicator is then used to inoculate both the neutral and alkaline pH nutrient agar petri plates.
(§4) The inoculated petri plates are incubated at 30° C. for 48 hours and then read to determine if the test compound which is incorporated into the agar prevented growth of the respective bacteria.

[5] = system: Enterobacter aerogenes (Ea); test: as above; conditions: Klebsiella aerogenes, ATCC13048, ATCC 13048, 30° C., 48 hours
Description: as §1, §3, §4

[6] = system: Salmonella choleraesuis (Sc); test: as above; conditions: Salmonella enterica, ATCC 10708 / CHOLERAESUIS, 48 hours
Description: as §1, §3, §4

Bacillus subtilis (Bs) = test: as above; conditions: 48 hours
Description: as §1, §3, §4

[7] = system: Pseudomonas aeruginosa (PRD-10); test: as above; conditions: 48 hours
Description: as §1, §3, §4

[8] = system: Staphylococcus aureus (Sa); test: as above; conditions: 48 hours
Description: as §1, §3, §4

[9] = system: Klebsiella pneumoniae (Kp); test: as above; conditions: 48 hours
Description: as §1, §3, §4

Escherichia coli (Ec) = test: as above; conditions: 48 hours
Description: as §1, §3, §4

Proteus vulgaris (Pv) = test: as above; conditions: 48 hours
Description: as §1, §3, §4

Question: What does the source list for N#CSCSc1nn(-c2ccccc2)c(=S)s1 [INVENTION, 3-phenyl-5-thiocyanomethylthio-1,3,4-thiadiazole-2(3H)thione]?
Answer: MIC [1]: 2.5 µg/mL (≈ 8.4 µM); MIC (Trichoderma viride (Tv)): 25 µg/mL (≈ 84 µM); MIC (Fusarium oxysporum (Fo)): 10 µg/mL (≈ 33.6 µM); MIC (Candida Albicans (Ca)): 25 µg/mL (≈ 84 µM); MIC [2]: 2.5 µg/mL (≈ 8.4 µM); MIC [3]: 5 µg/mL (≈ 16.8 µM); MIC (Aspergillus niger (An)): 5 µg/mL (≈ 16.8 µM); MIC ([4]; ATCC10145, pH 6.8, ATCC 10145, 30° C.): 50 µg/mL (≈ 168 µM); MIC ([4]; ATCC10145, pH 8.2, ATCC 10145, 30° C.): 50 µg/mL (≈ 168 µM); MIC ([5]; pH 6.8): 100 µg/mL (≈ 336 µM); MIC ([5]; pH 8.2): > 500 µg/mL; MIC ([6]; pH 6.8, 30° C.): 100 µg/mL (≈ 336 µM); MIC ([6]; pH 8.2, 30° C.): 500 µg/mL (≈ 1680 µM); MIC (Bacillus subtilis (Bs); ATCC8473, pH 6.8, ATCC 8473, 30° C.): 100 µg/mL (≈ 336 µM); MIC (Bacillus subtilis (Bs); ATCC8473, pH 8.2, ATCC 8473, 30° C.): < 10 µg/mL; MIC ([7]; ATCC15442, pH 6.8, ATCC 15442, 30° C.): 50 µg/mL (≈ 168 µM); MIC ([7]; ATCC15442, pH 8.2, ATCC 15442, 30° C.): 100 µg/mL (≈ 336 µM); MIC ([8]; ATCC6538, pH 6.8, ATCC 6538, 30° C.): 100 µg/mL (≈ 336 µM); MIC ([8]; ATCC6538, pH 8.2, ATCC 6538, 30° C.): 250 µg/mL (≈ 840 µM); MIC ([9]; ATCC8308, pH 6.8, ATCC 8308, 30° C.): 100 µg/mL (≈ 336 µM); MIC ([9]; ATCC8308, pH 8.2, ATCC 8308, 30° C.): 250 µg/mL (≈ 840 µM); MIC (Escherichia coli (Ec); ATCC11229, pH 6.8, ATCC 11229, 30° C.): 100 µg/mL (≈ 336 µM); MIC (Escherichia coli (Ec); ATCC11229, pH 8.2, ATCC 11229, 30° C.): 500 µg/mL (≈ 1680 µM); MIC (Proteus vulgaris (Pv); ATCC881, pH 6.8, ATCC 881, 30° C.): 100 µg/mL (≈ 336 µM); MIC (Proteus vulgaris (Pv); ATCC881, pH 8.2, ATCC 881, 30° C.): 250 µg/mL (≈ 840 µM)
